Experimental findings from ChEMBL document CHEMBL1201862, “PubChem BioAssay data set” (2004) are described below.

SMILES strings stand for the structures. The source made the active and inactive calls. Some results are limits rather than exact numbers.

Series [1] can be described thus: growth suppression of PTEN-null colon cells, dose response, cell-based, HCT116 PTEN knockout (AID 1047). In kind it is functional.
Series [2] addresses T1, Heat shock factor protein 1 (Mus musculus, UniProt P38532).
T1 sequence (P38532 whole entry): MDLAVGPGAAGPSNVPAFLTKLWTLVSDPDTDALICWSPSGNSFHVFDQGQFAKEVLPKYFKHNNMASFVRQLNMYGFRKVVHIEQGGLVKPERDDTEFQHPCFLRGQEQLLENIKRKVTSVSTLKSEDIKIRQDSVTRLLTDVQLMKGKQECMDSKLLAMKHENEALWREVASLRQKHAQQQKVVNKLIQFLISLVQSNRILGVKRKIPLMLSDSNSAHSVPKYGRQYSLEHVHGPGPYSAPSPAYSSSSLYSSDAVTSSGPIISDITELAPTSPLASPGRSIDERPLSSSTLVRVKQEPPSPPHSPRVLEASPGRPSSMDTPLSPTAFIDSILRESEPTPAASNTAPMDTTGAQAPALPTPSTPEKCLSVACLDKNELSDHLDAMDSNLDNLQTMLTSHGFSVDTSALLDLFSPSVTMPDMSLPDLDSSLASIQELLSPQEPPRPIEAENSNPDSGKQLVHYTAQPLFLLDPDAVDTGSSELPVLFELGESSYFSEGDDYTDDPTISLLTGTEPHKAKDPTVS
Kind of series: HSF1 potentiators in luciferase reporter cells, confirmation, cell-based, NIH3T3, luminescence, dose retest (AID 435004). In kind it is functional.

Series [3] can be described thus: insulin promoter down-regulators in MIN6 cells, imaging, high-content screening, mouse beta cells (AID 1628). The format is functional.
Series [4] concerns the target T2, High affinity choline transporter 1 (Homo sapiens, UniProt Q9GZV3).
T2 sequence (Q9GZV3 whole entry): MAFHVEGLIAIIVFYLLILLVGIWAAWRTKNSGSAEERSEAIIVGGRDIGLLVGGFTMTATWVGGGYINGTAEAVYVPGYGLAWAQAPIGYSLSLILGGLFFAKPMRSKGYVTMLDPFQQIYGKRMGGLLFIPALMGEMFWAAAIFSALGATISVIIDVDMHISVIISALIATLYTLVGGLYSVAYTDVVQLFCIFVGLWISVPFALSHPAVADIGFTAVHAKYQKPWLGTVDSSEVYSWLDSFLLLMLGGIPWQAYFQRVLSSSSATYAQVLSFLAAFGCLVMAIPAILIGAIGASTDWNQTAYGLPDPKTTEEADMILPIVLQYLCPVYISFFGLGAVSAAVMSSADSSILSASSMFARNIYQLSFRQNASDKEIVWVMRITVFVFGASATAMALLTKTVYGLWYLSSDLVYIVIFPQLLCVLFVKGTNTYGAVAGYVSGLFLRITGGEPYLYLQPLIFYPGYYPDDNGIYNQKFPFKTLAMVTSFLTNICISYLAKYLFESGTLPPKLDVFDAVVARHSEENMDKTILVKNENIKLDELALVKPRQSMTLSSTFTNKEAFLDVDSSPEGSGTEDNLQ
As to the kind of experiment: CHT inhibitors, dose response, cell-based, 5-point CRC, membrane potential dye (AID 504840). The format is functional.

Series [5] can be described thus: growth suppression of beta-catenin-knockout colon cells, dose response, cell-based, HCT116, human colon tumor (AID 1045). The format is functional.
A short description of series [6]: cytotoxicity in MIN6 insulinoma cells, dose response, cytotoxicity control, cell-based, mouse insulinoma (AID 2122). In kind it is functional.
The target of series [7] is T2, High affinity choline transporter 1. As to the kind of experiment: CHT inhibitors, dose response, cell-based, 10-point CRC, membrane potential dye (AID 588401). In kind it is functional.
Series [8] can be described thus: NIH-3T3 fibroblast cytotoxicity, dose response, cytotoxicity control, cell-based, fluorescence, Alamar Blue, secondary assay (AID 2327). The format is functional.
For series [9], the target named is T3, Serine/threonine-protein phosphatase (Candida dubliniensis (strain CD36 / CBS 7987 / NCPF 3949 / NRRLY-17841) (Yeast), UniProt B9W6M3).
T3 sequence (B9W6M3 whole entry): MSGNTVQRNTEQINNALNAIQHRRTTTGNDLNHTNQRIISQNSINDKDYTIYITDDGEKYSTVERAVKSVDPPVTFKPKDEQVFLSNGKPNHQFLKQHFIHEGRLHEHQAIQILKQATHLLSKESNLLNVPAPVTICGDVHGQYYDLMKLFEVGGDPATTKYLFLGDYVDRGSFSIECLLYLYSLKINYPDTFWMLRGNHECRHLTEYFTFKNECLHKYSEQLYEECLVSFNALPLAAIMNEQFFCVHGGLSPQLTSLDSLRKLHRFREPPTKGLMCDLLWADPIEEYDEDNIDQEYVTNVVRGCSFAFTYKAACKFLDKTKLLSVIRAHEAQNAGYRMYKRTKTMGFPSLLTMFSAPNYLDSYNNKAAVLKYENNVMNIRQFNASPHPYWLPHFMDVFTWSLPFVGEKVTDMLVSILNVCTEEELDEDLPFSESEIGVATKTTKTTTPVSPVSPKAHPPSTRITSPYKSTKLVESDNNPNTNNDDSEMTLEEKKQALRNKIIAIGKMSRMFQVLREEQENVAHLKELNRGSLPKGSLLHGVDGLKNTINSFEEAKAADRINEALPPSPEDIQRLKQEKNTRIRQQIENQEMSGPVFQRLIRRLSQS
As to the kind of experiment: calcineurin pathway inhibitors in yeast reporter, dose response, S. cerevisiae, CDRE-lacZ, luminescence, secondary (AID 2388). The format is functional, cell-based.

Series [10] addresses ATP-dependent molecular chaperone HSP82 (Candida albicans (strain WO-1) (Yeast), UniProt C4YTQ8). As to the kind of experiment: loss of DOC-induced GRE-beta-galactosidase reporter signal, dose response, Hsp90 inhibitor project, S. cerevisiae, luminescence (AID 2400). In kind it is functional, cell-based.
A short description of series [11]: C. albicans growth with fluconazole, confirmation, fluorescence, retest (AID 2467). The format is functional, cell-based.
Series [12] concerns the target Eukaryotic translation initiation factor 4E (Mus musculus, UniProt P63073). As to the kind of experiment: eIF4E–eIF4G protein interaction inhibitors, dose response, biochemical, TR-FRET (AID 855). The format is functional.
Series [13] deals with Vero. Kind of series: cells. The format is functional. Conditions: Chlorocebus sabaeus.
In series [14] the test system is Vero. Kind of series: cells. In kind it is functional, cell-based. To be noted: Chlorocebus sabaeus.
In series [15] the target is T4, Cytochrome P450 2C9 (Homo sapiens, UniProt P11712).
A short description of series [16]: cells. The format is functional.
Series [17] has as its target T4, Cytochrome P450 2C9. The source holds these as a separate data set.
Series [18] can be described thus: THP-1 cell cytotoxicity, dose response, cytotoxicity control for non-replicating M. tuberculosis project (AID 489025). The format is functional.
The nature of series [19]: HepG2 cell cytotoxicity, dose response, cytotoxicity control for non-replicating M. tuberculosis project (AID 489018). In kind it is functional. To be noted: Mycobacterium tuberculosis.
Series [20] is described as follows: Vero E6 cell cytotoxicity, dose response, cytotoxicity control for non-replicating M. tuberculosis project, secondary assay (AID 492998). In kind it is functional, VeroE6. Conditions: Vero C1008.

T4 sequence (P11712 whole entry): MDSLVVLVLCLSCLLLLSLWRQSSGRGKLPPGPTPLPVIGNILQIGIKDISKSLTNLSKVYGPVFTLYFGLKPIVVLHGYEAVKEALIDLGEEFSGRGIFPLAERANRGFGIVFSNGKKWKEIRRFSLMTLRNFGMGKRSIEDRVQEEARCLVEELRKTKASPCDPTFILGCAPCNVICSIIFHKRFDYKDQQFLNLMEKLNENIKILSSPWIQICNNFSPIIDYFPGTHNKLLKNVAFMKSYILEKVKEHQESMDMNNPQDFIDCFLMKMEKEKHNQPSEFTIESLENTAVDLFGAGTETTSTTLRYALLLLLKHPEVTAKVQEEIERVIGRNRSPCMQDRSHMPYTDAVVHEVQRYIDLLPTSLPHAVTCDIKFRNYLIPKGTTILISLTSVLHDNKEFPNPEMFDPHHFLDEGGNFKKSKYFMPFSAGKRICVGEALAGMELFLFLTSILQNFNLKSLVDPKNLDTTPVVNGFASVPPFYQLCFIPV
Sequence of Eukaryotic translation initiation factor 4E (P63073 whole entry): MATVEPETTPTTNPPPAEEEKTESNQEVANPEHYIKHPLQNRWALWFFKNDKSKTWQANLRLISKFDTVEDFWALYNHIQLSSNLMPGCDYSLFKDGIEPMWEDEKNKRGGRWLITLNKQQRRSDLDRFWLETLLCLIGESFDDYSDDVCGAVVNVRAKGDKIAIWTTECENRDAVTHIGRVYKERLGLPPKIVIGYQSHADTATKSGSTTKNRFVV
Sequence of ATP-dependent molecular chaperone HSP82 (C4YTQ8 whole entry): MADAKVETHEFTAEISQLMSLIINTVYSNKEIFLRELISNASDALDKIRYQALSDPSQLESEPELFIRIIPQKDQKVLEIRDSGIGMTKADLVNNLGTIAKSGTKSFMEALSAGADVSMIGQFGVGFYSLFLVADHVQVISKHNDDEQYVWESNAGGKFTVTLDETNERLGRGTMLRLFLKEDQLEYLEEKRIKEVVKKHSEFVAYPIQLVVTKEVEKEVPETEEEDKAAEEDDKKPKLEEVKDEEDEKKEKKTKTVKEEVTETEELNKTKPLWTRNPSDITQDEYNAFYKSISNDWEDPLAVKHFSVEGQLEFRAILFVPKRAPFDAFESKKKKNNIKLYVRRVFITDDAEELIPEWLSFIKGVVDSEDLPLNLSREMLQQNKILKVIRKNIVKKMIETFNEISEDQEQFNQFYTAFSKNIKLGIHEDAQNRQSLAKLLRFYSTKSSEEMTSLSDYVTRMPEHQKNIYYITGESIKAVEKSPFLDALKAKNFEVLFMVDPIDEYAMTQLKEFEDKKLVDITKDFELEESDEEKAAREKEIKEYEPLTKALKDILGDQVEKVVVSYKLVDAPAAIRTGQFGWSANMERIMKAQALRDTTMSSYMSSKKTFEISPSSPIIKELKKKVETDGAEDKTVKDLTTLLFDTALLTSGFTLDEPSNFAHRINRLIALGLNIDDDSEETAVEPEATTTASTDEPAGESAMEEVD

For the compound `CCC(NC(C)c1ccccc1)=C1C(=O)N(C)C(=O)N(C)C1=O` (stereo not given), the figures for the EC50 in series [1], in series [2] and in [5] were 47.9 µM (active), > 260 µM (inactive) and 50 µM (active), respectively. Besides, the half-inhibitory concentration (IC50) in [3] is 2.84 µM (active); in [4] it was 9.12 µM (active); in series [6] it was 2.81 µM (active); in series [7], 8.43 µM (active).

Consider `CN(C)S(=O)(=O)Oc1cccc(C(=O)Nc2cccc(Cl)c2)c1`, for which the EC50 in [8] is > 150 µM (inactive); in series [9], > 180 µM (inactive); in series [10] it was 24.7 µM (active); in [11], 2.39 µM (active).

In the case of `COc1ccccc1/C=C/C(=O)c1c(O)nc(C)c2c1CCCC2`, the IC50 is 50 µM (inactive) in series [12] and 20.3 µM (active) in series [14]. The half-maximal cytotoxic concentration (CC50) in series [13] is > 25 µM (active). In series [15], the AC50 result is reported as “inconclusive”.

For the compound `CCOc1cc(CNCCO)cc(Br)c1OCc1ccccc1Cl`, the EC50 in [1] was 9.8 µM (active); in series [5], 9.13 µM (active). Also, the IC50 in series [16] was 18.4 µM (active); in [3], 1.43 µM (active); in [6], 1.56 µM (active). Also, the AC50 in series [17] was 28.2 µM (inconclusive). For the same compound, the 50% cytotoxic concentration (CC50) in [13] is 13.8 µM (active); in series [18] it was 11.5 µM (active); in [19], 14.1 µM (active); in series [20], 19.7 µM (active).
